Experimental data taken from article PMC7313430, “Heme-Dependent ER Stress Apoptosis: A Mechanism for the Selective Toxicity of the Dihydroartemisinin, NSC735847, in Colorectal Cancer Cells” (Frontiers in Oncology, 2020).

Tests used:
[1] = system: caspase 3/7 activity in HT29 cells; experiment: Caspase-Glo 3/7 activity assay in HT29; assay type: cell-based, human; conditions: for tumor selectivity of apoptosis induction (caspase 3/7, words): 16 h, HT29 compared to HCT-116 and FHC; for effect of pretreatment on NSC735847-induced caspase 3/7 activity: HT29, pretreatment 1 h (GSK 10 μM, SAL 50 μM), then 10 μM NSC735847 16 h
Description: The cells were plated in white-walled 96-well-plates and then they were cultured at 37°C for 48 h. Serum-free culture medium containing the appropriate concentration of different agents was added to the cells for the indicated period of time. Caspase-Glo 3/7 reagent (Promega, Madison, WI) was added to each well and luminescence was detected as directed by the manufacturer. The Caspase-Glo 3/7 kit measures the activity of the executioner caspases 3 and 7 using the luminogenic substrate (Z-DEVD-aminoluciferin) as substrate.

[2] = system: HT29 cells; experiment: MTS cell viability assay, colon cancer cells HT29; assay type: cell-based, human; conditions: for IC50: Homo sapiens, HT-29, MTS viability, 24 h treatment; for selective cytotoxicity toward colon cancer cells vs FHC: HT-29/HCT-116 compared to FHC; for effect of pretreatment on NSC735847-mediated cell death: HT29, MTS, pretreatment with the agent, then NSC735847 (10 μM; 5 μM for HTF) 24 h
Description: (§1) The human colon cancer cell lines HT29 and HCT116 were cultured in McCoy's 5A medium (Sigma Aldrich, St. Louis, MO) containing 10% heat-inactivated fetal bovine serum (FBS), penicillin (100 units/ml), and streptomycin (100 μg/ml). The non-tumorigenic colon cell line, FHC, was cultured in DMEM: F12 (1:1) medium supplemented with 10% heat inactivated FBS, 25 mM HEPES (Thermo Fisher Scientific Inc., IL), 10 ng/ml cholera toxin (Sigma Aldrich, St. Louis, MO), 0.005 mg/ml insulin (Thermo Fisher Scientific Inc., IL), 0.005 mg/ml, transferrin (Sigma Aldrich, St. Louis, MO), 100 ng/ml hydrocortisone (Sigma Aldrich, St. Louis, MO), 20 ng/mL human recombinant epidermal growth factor (Thermo Fisher Scientific Inc., IL), 100 units/ml penicillin, and 100 μg/ml streptomycin.
(§2) Cells were cultured in 96-well-plates for 48 h before treatment. Serum-free media containing different agents was added to the cells at the concentration and time period described in the figure legend. MTS reagent (Promega, Madison, WI) was then added to each well and the absorbance was measured at 495 nm as directed by the manufacturer. In the presence of MTS reagent, the absorbance reading is proportional to the number of viable cells. The half-maximal inhibitory concentration (IC50) of the tested compounds is the concentration that reduces the viability of cells by 50%. IC50 was calculated after 24 h of treatment ([30], [31]) as described previously ([32]–[34]) from dose-response curves (log drug concentration vs. percentage viability from untreated cells) generated by non-linear regression analysis with GraphPad Prism 5 software (GraphPad Software, San Diego, California).

[3] = system: FHC cells; experiment: MTS cell viability assay, non-tumorigenic colon cells; assay type: cell-based; conditions: Homo sapiens, 24 h treatment
Description: as §1, §2

[4] = system: HCT116 cells; experiment: MTS cell viability assay, colon cancer cells HCT116; assay type: cell-based, human; conditions: for IC50: Homo sapiens, HCT-116, MTS viability, 24 h treatment; for cytotoxic activity against HCT-116 cells: 3.1-25 μM
Description: as §1, §2

[5] = system: P-PERK, P-eIF2α, CHOP10, PARP, caspase-3, ferritin in HT29 cells; experiment: Western blot of ER stress and apoptosis proteins in HT29; assay type: cell-based, human; conditions: for effect of pretreatment on NSC735847-induced CHOP10 expression: HT29, pretreatment (GSK 10 μM, salubrinal 50 μM, SA 10 mM), then 10 μM NSC735847 8 h
Description: Western blot analysis was conducted as described previously ([35]). Briefly, the cells were cultured in 100 mm dishes for 48 h before treatment. The cells were then treated as described in the figure legends. For vehicle-treated samples, DMSO was added to serum-free culture medium at a maximum concentration of 0.1% (v/v). After experimentation, the cells were washed twice with phosphate buffer saline (PBS) and then 100 μl of Triton lysis buffer [25 mM HEPES, 100 mM NaCl, 1 mM EDTA, 10% (v/v) glycerol, 1% (v/v) Triton X-100], containing protease and […] inhibitors, was added to the cells. Protein concentrations were determined by using BCA reagents (Thermo Fisher Scientific Inc., IL). Equal concentrations of each sample were loaded onto SDS–PAGE gels and protein bands transferred to nitrocellulose membranes using semi-dry transfer cells (TRANS-BLOTSD; Bio-Rad Laboratories, Hercules, CA). The membranes were incubated for 2 h at room temperature in Odyssey blocking buffer (LI-COR Biosciences, Lincoln, NE). Membranes were then incubated overnight at 4C with primary antibody followed by 1 h of incubation at room temperature with secondary antibody. All primary antibodies were used at a dilution of 1:1,000 except anti-GAPDH and anti-CHOP10 antibodies which were used at 1:10,000 and 1:500 dilutions, respectively. All secondary antibodies were used at a dilution of 1:15,000. Protein bands were visualized using Odyssey® CLx digital fluorescence imaging system (LI-COR, Lincoln, Nebraska). Band intensities were quantified by using ImageJ software ([36]).

[6] = system: reactive oxygen species in HT29 cells; experiment: Oxidative stress measurement with CM-H2DCFDA (DCF); assay type: cell-based, human; conditions: HT29, 0.25 mM Trolox 2 h, then 10 μM NSC735847 8 h
Description: Oxidative stress was measured in cultured cells by using the probe, chloromethyl-2′,7′ dichlorodihydrofluorescein diacetate (CM-H2DCFDA or DCF) purchased from Life Technologies (Grand Island, NY). […] The cells were loaded with 5 μM DCF in phenol red-free, serum-free medium for 30 min and then the cells were treated with the appropriate drug for the indicated period of time. The cells were then trypsinized and resuspended in serum-containing, phenol red-free medium. The fluorescence of DCF was measured using an Accuri C6 flow cytometer (BD Accuri Cytometers, Ann Arbor, MI) at an excitation wavelength of 488 and emission of 533 ± 30 nm.

[7] = MTS, 24 h, single agents or combinations

Molecule | tumor selectivity of apoptosis induction (caspase 3/7, words) [1] | IC50 [2] [µM] | selective cytotoxicity toward colon cancer cells vs FHC ([2]; MTS, 24 h) | IC50 [3] [µM] | IC50 [4] [µM] | effect of pretreatment on NSC735847-mediated cell death [2] | further results
CC1CCC2C(C)C(OCC(COC3OC4OC5(C)CCC6C(C)CCC(C3C)C46OO5)N3CCCCC3)OC3OC4(C)CCC1C32OO4 (stereo not drawn) [(4)] | preferentially induced apoptosis in HT-29 compared to FHC cells | > 25 | more cytotoxic toward HT-29 than FHC cells | > 25 | > 25 |  | cytotoxic activity against HCT-116 cells ([4]; MTS, 24 h): inactive
CC1CCC2C(C)C(OCC(COC3OC4OC5(C)CCC6C(C)CCC(C3C)C46OO5)NCc3ccccc3)OC3OC4(C)CCC1C32OO4 (stereo not drawn) [(5)] | preferentially induced apoptosis in HT-29 compared to FHC cells | 15.2 ± 1.12 | more cytotoxic toward HT-29 than FHC cells | > 25 | > 25 |  | cytotoxic activity against HCT-116 cells ([4]; MTS, 24 h): inactive
CC(=O)N(O)CCCCCNC(=O)CCC(=O)N(O)CCCCCNC(=O)CCC(=O)N(O)CCCCCN [DFO, deferoxamine, reference compound] |  |  |  |  |  | did not prevent NSC735847-mediated cell death | effect of pretreatment on NSC735847-mediated ferritin protein expression ([5]; HT29, 100 μM DFO 4 h, then 10 μM NSC735847 24 h): inhibited NSC735847-mediated ferritin expression
Cn1cc(-c2ccc3c(c2)CCN3C(=O)Cc2cccc(C(F)(F)F)c2)c2c(N)ncnc21 [GSK2606414, 7-methyl-5-(1-{[3-(trifluoromethyl)phenyl]acetyl}-2,3-dihydro-1H-indol-5-yl)-7H-p yrrolo[2,3-d]pyrimidin-4-amine, reference compound] |  |  |  |  |  | suppressed NSC735847-mediated cell death | effect of pretreatment on NSC735847-induced PERK phosphorylation ([5]; HT29, 10 μM pretreatment 1 h, then 10 μM NSC735847 1 h): decreased the phosphorylation of PERK; effect of pretreatment on NSC735847-induced CHOP10 expression [5]: decreased; effect of pretreatment on NSC735847-induced caspase 3/7 activity [1]: inhibited caspase 3/7 activity
O=C1[O][Pt]2([NH][C@@H]3CCCC[C@H]3[NH]2)[O]C1=O [OX, oxaliplatin, reference compound] |  |  |  |  |  |  | cell death / survival of HT29 cells [2, 7]: induced death in a concentration-dependent manner; cell death / survival of HCT116 cells [4, 7]: induced death in a concentration-dependent manner
O=C(CC(c1ccccc1)c1ccccc1)Cn1ccnc1 [QC-308, reference compound] |  |  |  |  |  | increased the cytotoxicity of NSC735847 | 
Cc1c(C)c2c(c(C)c1O)CCC(C)(C(=O)O)O2 (stereo not drawn) [Trolox, reference compound] |  |  |  |  |  | did not rescue the cells from NSC735847-induced cytotoxicity | effect of pretreatment on NSC735847-induced oxidative stress [6]: significant reduction in oxidative stress
CC1CCC2C(C)C(OCC(COC3OC4OC5(C)CCC6C(C)CCC(C3C)C46OO5)N3CCOCC3)OC3OC4(C)CCC1C32OO4 (stereo not drawn) [compound (1)] | did not exhibit tumor selectivity | > 25 | not selectively cytotoxic toward either colon cancer cell line | > 25 | > 25 |  | 
CC1CCC2C(C)C(OCC(COC3OC4OC5(C)CCC6C(C)CCC(C3C)C46OO5)NNC(=O)c3ccncc3)OC3OC4(C)CCC1C32OO4 (stereo not drawn) [compound (2)] | increase in apoptosis in HT29 compared to HCT-116 and FHC cells | 19.6 ± 1.06 | not selectively cytotoxic toward either colon cancer cell line | 23.2 ± 1.04 | 22.1 ± 1.06 |  | 
O=C(/C=C/c1ccccc1)NC(NC(=S)Nc1cccc2cccnc12)C(Cl)(Cl)Cl (stereo not drawn) [salubrinal, reference compound] |  |  |  |  |  | blocked | effect of pretreatment on NSC735847-induced CHOP10 expression [5]: blocked CHOP10 expression; effect of pretreatment on NSC735847-induced caspase 3/7 activity [1]: blocked
CC(=O)CC(=O)CCC(=O)O [succinylacetone, reference compound] |  |  |  |  |  | rescued the cells from the cytotoxic effects of NSC735847 | effect of pretreatment on NSC735847-induced CHOP10 expression [5]: blunted NSC735847-induced CHOP10 expression
HTF: iron-loaded transferrin molecule |  |  |  |  |  | did not enhance the killing effect of NSC735847 | 
